# According to article PMC8466300, “Investigating the Central Nervous System Disposition of Actinomycin D: Implementation and Evaluation of Cerebral Microdialysis and Brain Tissue Measurements Supported by UPLC-MS/MS Quantification” (Pharmaceutics, 2021):
# Values joined by “and” are separate entries in the source; they are usually repeats but may differ in a detail not shown here. Identical values can stand only once. *1 amine or outer side, *2 acyl side, *3 side chain or, on linkers, in order; H or OH if unused. Where a SMILES comes first, the peptide text is derived from it. Bridges are numbered along the chain shown (N, C = ends). Roman numbers before positions name the chains, in order. [ ]: non-standard residue; d: D form. Actinocin(9to1) = Cc1c2oc3c(C)ccc(C(=O)[*:1])c3nc-2c(C(=O)[*:2])c(N)c1=O; NMeV = CN[C@H](C(=O)O)C(C)C; Sar = CNCC(=O)O
# Legend:
# [1] = two patients, three hours after intravenous administration; cited from earlier work
# Source text: However, in this earlier study, actinomycin D was quantified in cerebrospinal fluid three hours after intravenous administration, i.e., in a protein-poor compartment that is also separated from blood and tissue by active barriers. […] In a more recent study in m ...
# [2] = test system: L-MDR1 cells (over-expressing human P-gp/ABCB1); conditions: ratio of IC50 in P-gp over-expressing versus parental cells
# Experimental: (§1) To confirm the P-gp substrate characteristics of actinomycin D, we conducted growth inhibition and uptake assays in a cell line over-expressing human P-gp/ABCB1 (L-MDR1 cells) in comparison to the respective parental cell line (LLC-PK1). L-MDR1 cells were kindly provided by A. H. Schinkel (The Netherlands Cancer Institute, Division of Experimental Therapy, Amsterdam, The Netherlands). The cells were cultured under standard cell culture conditions with medium M199 supplemented with 10% FCS, 2 mM glutamine, 100 U/mL penicillin, and 100 µg/mL streptomycin sulfate. The culture medium for L-MDR1 was supplemented with 0.64 µM vincristine to maintain P-gp/ABCB1 expression. One day before using the cells in the assays, both cell lines were fed with vincristine-free culture medium.
# (§2) The assays were performed in quadruplicate, as described previously, using ten concentrations of actinomycin D from 0.0005–10 µM in octuplets.
# (§3) Calibration curves were determined with 1/x^2 weighted linear regression using peak area ratios of the analyte to IS. This calculation was performed using the software TargetLynx V4.2 (Waters, Milford, MA, USA). Plasma pharmacokinetics were determined with the software Kinetica (v 5.0; Thermo Fisher Scientific, Waltham, MA, USA). Standard calculations were performed using Microsoft Office Excel 2010 ([…]). Concentration–response curves and IC50 values were calculated by GraphPad Prism version 9.0.0 (GraphPad Software Inc., La Jolla, CA, USA) according to a sigmoid Emax model.
# [3] = Experimental: as §1, §2, §3
# [4] = test system: LLC-PK1 cells; conditions: read-out: IC50 (proliferation); LLC-PK1 parental cells; four experiments, each concentration in octuplet; ten concentrations 0.0005–10 µM; sigmoid Emax model
# Experimental: as §1, §2, §3
# [5] = Plasma and brain tissue concentrations after intravenous bolus injection (CNS disposition); type: in vivo, mice; conditions: for Brain-to-Plasma Ratio: total concentrations
# Experimental: The experiments were carried out in accordance with the European regulations for care and use of laboratory animals (2010/63/EU) under the German license number G-187/18 and the internal reference number DKFZ374, approved by the responsible regional council (Regierungspräsidium Karlsruhe, Germany). Female 8-week-old NSG mice (NOD.Cg-Prkdc^scid Il2rg^tm1Wjl/SzJ-NOD-SCID gamma-mice) with a weight of approximately 25 g were used for the studies. For microdialysis experiments, a microdialysis guide cannula was stereotactically implanted into the right striatum and stabilized with screws and dental acrylic cement. Mice received analgesia (metamizole) and anesthesia with isoflurane during surgery. After six days of recovery, the microdialysis procedure was initiated. A microdialysis probe (CMA7, 1 mm, molecular cut-off 55 kDa, CMA Microdialysis AB, Kist, Sweden) was inserted through the guide cannula and connected to a pump system operating at a constant flow rate of 0.5 µL/min Ringer-1 % bovine serum albumin (BSA) solution. Throughout the study, mice could freely move. Microdialysis samples were serially collected each hour. Because the number of blood collections in individual mice is limited, we estimated the optimal timepoints for a pharmacokinetic feasibility study by allometric simulation of actinomycin D’s pharmacokinetic profile in mice according to published data in humans. For the allometric simulation, mouse plasma pharmacokinetic profiles were simulated by allometrically scaling the clearance and volumes parameters using classic exponents (0.75 for clearances and 1 for volumes) […], based on 0.5 mg/kg dosage. […] Therefore, we chose to take blood samples 0.75, 6, and 22 h after intravenous bolus injection into the tail vein for the assay’s feasibility pharmacokinetic experiment. Three animals received an intravenous bolus injection of 0.5 mg/kg actinomycin D in 0.125 mL per mouse (25 g) of a 0.1 mg/mL dosing solution. This dosage corresponds to the usual therapy protocols in humans according to allometric scaling. Full blood samples were transferred into citrate tubes (Sarstedt, Germany) and centrifuged at 1600× g for 10 min to generate plasma samples, which were stored at −80 °C until analysis. For determination of actinomycin D disposition in the CNS, brain tissue, and plasma samples were harvested following euthanasia with increasing concentrations of CO2 at 2 h (three animals) or 22 h (four animals) after intravenous bolus injection of 0.5 mg/kg actinomycin D. Samples were stored at −80 °C until analysis. For validation of the UPLC-MS/MS quantification, blank plasma from 6 naïve mice was used and blank brain tissue was obtained from 2 unexposed mice. Whole brain tissue was homogenized using a Bead Ruptor 4 homogenizer (Omni International Inc, Kennesaw, GA, USA) in acetonitrile (ACN)/water (1/19, v/v) + 0.5 % Triton X and 0.1 % formic acid (FA) (100 mg brain tissue/mL) in 2.0 mL tubes containing ~25 glass beads (0.75–1 mm; Carl Roth GmbH, Karlsruhe, Germany) for 2 × 1 min.
# For protein precipitation of plasma microsamples, an excess of ACN (50 µL) with 0.1% FA containing the IS was applied to an Impact® 96-well protein precipitation plate (Phenomenex, Torrance, CA, USA). Subsequently, 20 µL of the plasma samples were added and the plates sealed and shaken for 1 min. Brain tissue homogenate samples were processed accordingly. For protein depletion, samples were filtered into a 96-well collection plate (Waters, Milford, MA, USA) by applying positive pressure with a 96-well positive pressure unit (Waters, Milford, MA, USA) operated with air overpressure of 5 psi. After addition of 40 µL of water containing 0.1% FA, the collection plates were sealed, shaken, and extracts injected onto the UPLC system.
# [6] = test system: P-gp; conditions: cited from earlier work
compound,measurement,setting,value
"Cc1c2oc3c(C)ccc(C(=O)N[C@@H]4C(=O)N[C@H](C(C)C)C(=O)N5CCC[C@H]5C(=O)N(C)CC(=O)N(C)[C@@H](C(C)C)C(=O)O[C@@H]4C)c3nc-2c(C(=O)N[C@@H]2C(=O)N[C@H](C(C)C)C(=O)N3CCC[C@H]3C(=O)N(C)CC(=O)N(C)[C@@H](C(C)C)C(=O)O[C@@H]2C)c(N)c1=O [actinomycin D, Actinomycin D] (I: T[dV]P[Sar][NMeV] / II: T[dV]P[Sar][NMeV]; ester I:1-I:C, II:1-II:C; linker I:N-II:N via Actinocin(9to1))",cerebrospinal fluid concentration relative to corresponding plasma concentration,[1],approximately 10%
same,difference of IC50 L-MDR1 versus LLC-PK1,[2],> 100 fold
same,IC50,[3],2400 ± 600 nM
same,IC50,[4],21 ± 6 nM
same,level at time molar at 2 h,"[5]; female, NSG (NOD.Cg-Prkdc^scid Il2rg^tm1Wjl/SzJ), mouse, brain, iv, mice, 0.5 mg/kg i.v., after 2 h, read-out: brain tissue concentration",~3 nM
same,level at time molar at 22 h,"[5]; female, NSG (NOD.Cg-Prkdc^scid Il2rg^tm1Wjl/SzJ), mouse, brain, iv, mice, 0.5 mg/kg i.v., after 22 h, read-out: brain tissue concentration",~1.2 nM
same,tissue level at time at 2 h,"[5]; female, NSG (NOD.Cg-Prkdc^scid Il2rg^tm1Wjl/SzJ), mouse, iv, mice, 0.5 mg/kg i.v., 2 h, whole brain homogenate after cardiac perfusion with PBS, UPLC-MS/MS, mean of 3 mice, read-out: Brain Actinomycin D (total brain tissue concentration)",4.1 ng/g
same,level at 2 h,"[5]; female, NSG (NOD.Cg-Prkdc^scid Il2rg^tm1Wjl/SzJ), mouse, plasma, iv, mice, 0.5 mg/kg i.v., 2 h after administration, UPLC-MS/MS, mean of 3 mice, read-out: Plasma Actinomycin D",22.7 ± 3.9 ng/mL
same,tissue level at time at 22 h,"[5]; female, NSG, mouse, iv, mice, 0.5 mg/kg i.v., 22 h, whole brain homogenate after cardiac perfusion with PBS, UPLC-MS/MS, mean of 4 mice, read-out: Brain Actinomycin D (total brain tissue concentration)",1.67 ± 0.77 ng/g
same,level at 22 h,"[5]; female, NSG, mouse, plasma, iv, mice, 0.5 mg/kg i.v., 22 h after administration, UPLC-MS/MS, mean of 4 mice, read-out: Plasma Actinomycin D",3.4 ± 1.45 ng/mL
same,Brain Actinomycin D (total brain tissue concentration),"[5]; mice, 0.5 mg/kg i.v., 2 h, whole brain homogenate after cardiac perfusion with PBS, UPLC-MS/MS, mean of 3 mice, 0.5 mg/kg",4.14 ± 0.50 ng/g
same,Brain-to-Plasma Ratio,"[5]; mice, 0.5 mg/kg i.v., 2 h, mean of 3 mice, 0.5 mg/kg",0.18 and 0.18 ± 0.03
same,Brain-to-Plasma Ratio,"[5]; mice, 0.5 mg/kg i.v., 2 h, mouse 1",0.21
same,Brain-to-Plasma Ratio,"[5]; mice, 0.5 mg/kg i.v., 2 h, mouse 2",0.18
same,Brain-to-Plasma Ratio,"[5]; mice, 0.5 mg/kg i.v., 2 h, mouse 3",0.16
same,Brain-to-Plasma Ratio,"[5]; mice, 0.5 mg/kg i.v., 22 h, mean of 4 mice",0.53 ± 0.26
same,Brain-to-Plasma Ratio,"[5]; mice, 0.5 mg/kg i.v., 22 h, mouse 4",0.80
same,Brain-to-Plasma Ratio,"[5]; mice, 0.5 mg/kg i.v., 22 h, mouse 5",0.37
same,Brain-to-Plasma Ratio,"[5]; mice, 0.5 mg/kg i.v., 22 h, mouse 6",0.18
same,Brain-to-Plasma Ratio,"[5]; mice, 0.5 mg/kg i.v., 22 h, mouse 7",0.77
same,actinomycin D concentration in brain tissue homogenate,"[5]; mouse #1, 0.5 mg/kg i.v., 2 h, homogenate at 0.1 g tissue/mL, UPLC-MS/MS",0.409 ng/mL
same,brain exposure in P-gp knockout mice relative to wildtype mice,[6],2.3 fold
